Data from ChEMBL document CHEMBL5390201, “The Natural Alkaloid (-)-N-Hydroxyapiosporamide Suppresses Colorectal Tumor Progression as an NF-κB Pathway Inhibitor by Targeting the TAK1-TRAF6 Complex” (J Nat Prod, 2023).
Activity calls are given as the source filed them. The rule behind the calls is not given here.

Assays:
SW480 = assay: Cytotoxicity against human SW480 cells assessed as decrease in cell viability incubated for 48 hrs by SRB assay; format: functional, cell-based; settings: SW480, 48 h
HT-29 [1] = assay: Induction of apoptosis in human HT-29 cells assessed as inhibition of caspase 9 protein expression measured for 24 hrs by Western blot analysis; format: functional, cell-based; settings: dose 0-10 µM
HT-29 [2] = assay: Induction of apoptosis in human HT-29 cells assessed as early apoptotic cells at 0.5 uM incubated for 24 hrs by Annexin V-FITC/PI staining based flow cytometric analysis (reference value: 5.29 %); format: functional
Mus musculus [3] = assay: Anti-inflammatory activity in AOM/DSS-induced BALB/c mouse model inflammatory bowel disease assessed as reduction in distortion of glands at 10 mg/kg, ip pretreated with AOM for 7 days further replaced with DSS for 7 days and repeated for 2 times followed by every 2 days compound treatment for […] starting from day 50 by H and E staining based analysis; format: functional, organism-based; settings: time 21.0 day
[4] = target: T1, Nuclear factor NF-kappa-B complex (Homo sapiens) (UniProt Q00653+P19838+Q04206); assay: Inhibition of TNF-alpha induced NFkappaB activation in human HCT-116 cells assessed as downregulation of MCP-1 gene expression pretreated for 24 hrs followed by TNFalpha stimulation and measured after 2 hrs by quantitative RT-PCR analysis; format: cell-based; settings: dose 1-10 µM, time 26.0 hrs
T1 sequence (P19838 whole entry, looked up): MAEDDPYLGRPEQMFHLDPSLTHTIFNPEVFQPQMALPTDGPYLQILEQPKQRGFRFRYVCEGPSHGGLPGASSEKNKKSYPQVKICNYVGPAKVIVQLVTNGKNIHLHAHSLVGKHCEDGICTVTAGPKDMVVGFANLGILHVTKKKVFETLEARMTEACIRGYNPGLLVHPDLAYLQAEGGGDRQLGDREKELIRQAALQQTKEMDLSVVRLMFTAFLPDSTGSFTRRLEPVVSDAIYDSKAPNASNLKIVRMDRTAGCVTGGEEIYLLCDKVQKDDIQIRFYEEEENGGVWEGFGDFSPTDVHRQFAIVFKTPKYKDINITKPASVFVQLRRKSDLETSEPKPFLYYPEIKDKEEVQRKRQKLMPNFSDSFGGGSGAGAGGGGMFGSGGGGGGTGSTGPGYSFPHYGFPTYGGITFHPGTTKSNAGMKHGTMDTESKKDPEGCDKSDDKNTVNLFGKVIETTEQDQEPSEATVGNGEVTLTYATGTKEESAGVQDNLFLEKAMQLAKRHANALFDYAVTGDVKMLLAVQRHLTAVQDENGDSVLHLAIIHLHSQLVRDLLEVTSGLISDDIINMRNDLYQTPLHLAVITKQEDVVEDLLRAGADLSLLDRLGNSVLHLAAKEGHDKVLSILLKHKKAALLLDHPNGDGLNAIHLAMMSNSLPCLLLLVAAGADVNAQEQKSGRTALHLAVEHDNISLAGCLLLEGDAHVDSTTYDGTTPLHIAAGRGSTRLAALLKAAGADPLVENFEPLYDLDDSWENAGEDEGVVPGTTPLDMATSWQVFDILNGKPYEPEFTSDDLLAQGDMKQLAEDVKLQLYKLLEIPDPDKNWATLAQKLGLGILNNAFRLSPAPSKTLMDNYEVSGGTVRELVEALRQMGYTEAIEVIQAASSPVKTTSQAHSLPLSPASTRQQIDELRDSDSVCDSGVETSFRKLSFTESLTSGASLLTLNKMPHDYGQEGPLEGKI
T1 sequence (Q00653 whole entry, looked up): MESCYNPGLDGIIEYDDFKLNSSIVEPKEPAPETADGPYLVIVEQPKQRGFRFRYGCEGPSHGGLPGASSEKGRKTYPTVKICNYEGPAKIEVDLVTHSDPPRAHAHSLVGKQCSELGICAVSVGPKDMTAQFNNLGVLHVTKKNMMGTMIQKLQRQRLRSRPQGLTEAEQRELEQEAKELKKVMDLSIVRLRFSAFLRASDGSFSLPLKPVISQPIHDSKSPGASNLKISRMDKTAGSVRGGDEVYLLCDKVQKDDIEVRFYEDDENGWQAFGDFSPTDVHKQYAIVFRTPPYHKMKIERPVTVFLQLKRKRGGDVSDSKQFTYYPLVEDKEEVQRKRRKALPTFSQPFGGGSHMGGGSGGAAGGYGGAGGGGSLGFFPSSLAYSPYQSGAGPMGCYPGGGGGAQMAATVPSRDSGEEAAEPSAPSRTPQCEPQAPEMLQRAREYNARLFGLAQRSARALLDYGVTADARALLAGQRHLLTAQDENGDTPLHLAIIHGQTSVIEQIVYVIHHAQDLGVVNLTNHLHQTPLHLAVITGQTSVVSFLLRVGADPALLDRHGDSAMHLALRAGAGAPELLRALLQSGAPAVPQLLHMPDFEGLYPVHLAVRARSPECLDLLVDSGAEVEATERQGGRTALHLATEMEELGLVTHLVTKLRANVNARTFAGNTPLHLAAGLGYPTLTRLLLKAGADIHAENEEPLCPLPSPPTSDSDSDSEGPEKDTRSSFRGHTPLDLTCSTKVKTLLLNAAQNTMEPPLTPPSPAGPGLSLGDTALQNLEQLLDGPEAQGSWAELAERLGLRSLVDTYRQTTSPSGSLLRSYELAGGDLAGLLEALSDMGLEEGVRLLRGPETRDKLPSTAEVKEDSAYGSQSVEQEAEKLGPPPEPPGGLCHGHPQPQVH
T1 sequence (Q04206 whole entry, looked up): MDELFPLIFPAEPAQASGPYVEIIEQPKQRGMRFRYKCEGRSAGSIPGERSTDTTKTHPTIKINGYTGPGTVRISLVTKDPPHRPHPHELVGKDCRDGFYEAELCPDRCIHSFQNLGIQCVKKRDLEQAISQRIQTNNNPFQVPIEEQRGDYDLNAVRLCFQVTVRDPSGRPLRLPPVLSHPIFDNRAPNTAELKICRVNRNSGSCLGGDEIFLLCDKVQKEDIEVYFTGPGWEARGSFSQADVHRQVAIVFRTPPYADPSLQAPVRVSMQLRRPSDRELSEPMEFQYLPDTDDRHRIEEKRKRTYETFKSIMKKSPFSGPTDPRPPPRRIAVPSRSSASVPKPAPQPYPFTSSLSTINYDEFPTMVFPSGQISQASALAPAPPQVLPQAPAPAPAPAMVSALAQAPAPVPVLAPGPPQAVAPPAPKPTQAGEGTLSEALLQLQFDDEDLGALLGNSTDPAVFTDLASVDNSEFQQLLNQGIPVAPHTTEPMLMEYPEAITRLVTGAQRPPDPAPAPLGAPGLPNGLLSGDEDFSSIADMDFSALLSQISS

HT-29 [5] = assay: Induction of autophagy in human HT-29 cells assessed as increase in LC3I to LC3II conversion at 1 to 10 uM incubated for 24 hrs by Western blotting analysis; format: functional, cell-based; settings: dose 1-10 µM
[6] = Toxicity in athymic nude BALB/c mouse assessed as change in serum AKP level at 5 to 15 mg/kg, ip administered every other day and measured after 14 days; format: organism-based; settings: in vivo, 336 h, dose 5-15 mg/kg, time 14 day
HT-29 [7] = assay: Induction of apoptosis in human HT-29 cells assessed as early apoptotic cells at 10 uM incubated for 24 hrs by Annexin V-FITC/PI staining based flow cytometric analysis (reference value: 5.29 %); format: functional
HT-29 [8] = assay: Induction of apoptosis in human HT-29 cells assessed as viable cells at 0.25 uM incubated for 24 hrs by Annexin V-FITC/PI staining based flow cytometric analysis (reference value: 93 %); format: functional; settings: read-out: Activity
HCT-116 [9] = assay: Induction of autophagic flux in human HCT-116 cells assessed as increase in LC3 protein expression preincubated with chloroquine for 1 hr followed by compound addition and measured after 24 hrs by Western blot analysis; format: functional, cell-based
HT-29 [10] = assay: Induction of apoptosis in human HT-29 cells assessed as inhibition of PARP protein expression measured for 24 hrs by Western blot analysis; format: functional, cell-based; settings: dose 0-10 µM
HCT-116 [11] = assay: Induction of apoptosis in human HCT-116 cells assessed as necrotic cells at 0.25 uM incubated for 24 hrs by Annexin V-FITC/PI staining based flow cytometric analysis (reference value: 1.1 %); format: functional
Mus musculus [12] = assay: In vivo inhibition of NFkappaB activation in athymic BALB/c mouse xenografted with human HCT-116 cells assessed as reduction in E-selectin gene expression in tumor at 15 mg/kg, ip administered every other day and measured after 14 days by qRT-PCR analysis; format: functional, organism-based; settings: time 14.0 day
HCT-116 [13] = assay: Induction of apoptosis in human HCT-116 cells assessed as viable cells at 0.5 uM incubated for 24 hrs by Annexin V-FITC/PI staining based flow cytometric analysis (reference value: 88.8%); format: functional; settings: read-out: Activity
HT-29 [14] = assay: Induction of autophagic flux in human HT-29 cells assessed as increase in LC3 protein expression preincubated with chloroquine for 1 hr followed by compound addition and measured after 24 hrs by Western blot analysis; format: functional, cell-based
HT-29 [15] = assay: Induction of cell cycle arrest in human HT-29 cells assessed as decrease in CDK4 protein expression upto 10 uM incubated for 24 hrs by Western blot analysis; format: functional, cell-based
HT-29 [16] = assay: Antitumor activity against human HT-29 cells xenografted in athymic nude BALB/c mouse assessed as induction of apoptosis by measuring increase in cleaved PARP expression in tumor at 15 mg/kg, ip administered every other day and measured after 14 days by immunohistochemistry analysis; format: functional, organism-based; settings: time 14.0 day
HT-29 [17] = assay: Induction of cell cycle arrest in human HT-29 cells assessed as accumulation of cells at G0/G1 phase at 10 uM by RNase/PI staining based flow cytometry analysis (reference value: 50.73 %); format: functional
[18] = Toxicity in athymic nude BALB/c mouse assessed as change in serum ALT level at 5 to 15 mg/kg, ip administered every other day and measured after 14 days; format: organism-based; settings: in vivo, 336 h, dose 5-15 mg/kg, time 14 day
RKO = assay: Cytotoxicity against human RKO cells assessed as decrease in cell viability incubated for 48 hrs by SRB assay; format: functional, cell-based
[19] = target: T1, Nuclear factor NF-kappa-B complex (Homo sapiens); assay: Inhibition of TNF-alpha induced NFkappaB activation in human HT-29 cells assessed as downregulation of MCP-1 gene expression pretreated for 24 hrs followed by TNFalpha stimulation and measured after 2 hrs by quantitative RT-PCR analysis; format: cell-based; settings: dose 1-10 µM, time 26.0 hrs
HT-29 [20] = assay: Induction of apoptosis in human HT-29 cells assessed as late apoptotic cells at 0.5 uM incubated for 24 hrs by Annexin V-FITC/PI staining based flow cytometric analysis (reference value: 1.56 %); format: functional
HT-29 [21] = assay: Induction of cell cycle arrest in human HT-29 cells assessed as accumulation of cells at G0/G1 phase at 5 uM by RNase/PI staining based flow cytometry analysis (reference value: 50.73 %); format: functional
[22] = target: T1, Nuclear factor NF-kappa-B complex (Homo sapiens); assay: Inhibition of TNF-alpha induced NFkappaB activation in human HCT-116 cells assessed as downregulation of E-selectin gene expression pretreated for 24 hrs followed by TNFalpha stimulation and measured after 2 hrs by quantitative RT-PCR analysis; format: cell-based; settings: dose 1-10 µM, time 26.0 hrs
HT-29 [23] = assay: Induction of apoptosis in human HT-29 cells assessed as viable cells at 0.5 uM incubated for 24 hrs by Annexin V-FITC/PI staining based flow cytometric analysis (reference value: 93 %); format: functional; settings: read-out: Activity
HCT-116 [24] = assay: Inhibition of colony formation in human HCT-116 cells at 0.25 to 10 uM incubated for 24 hrs and measured after 14 days by crystal violet staining based assay; format: functional, cell-based; settings: dose 0.25-10 µM, time 14.0 day
HCT-116 [25] = assay: Induction of apoptosis in human HCT-116 cells assessed as increase in cleavage of PARP measured for 24 hrs by Western blot analysis; format: functional, cell-based; settings: dose 0-10 µM
HCT-116 [26] = assay: Induction of apoptosis in human HCT-116 cells assessed as late apoptotic cells at 5 uM incubated for 24 hrs by Annexin V-FITC/PI staining based flow cytometric analysis (reference value: 16.9 %); format: functional
HT-29 [27] = assay: Inhibition of colony formation in human HT-29 cells at 0.25 to 10 uM incubated for 24 hrs and measured after 14 days by crystal violet staining based assay; format: functional, cell-based; settings: dose 0.25-10 µM, time 14.0 day
HT-29 [28] = assay: Induction of apoptosis in human HT-29 cells assessed as necrotic cells at 5 uM incubated for 24 hrs by Annexin V-FITC/PI staining based flow cytometric analysis (reference value: 0.14 %); format: functional
Cell membrane = assay: Disruption of mitochondrial membrane potential in human HCT-116 cells at upto 10 uM measured after 24 hrs by JC-1 staining based fluorescence microscopy; format: subcellular
HCT-116 [29] = assay: Induction of apoptosis in human HCT-116 cells assessed as necrotic cells at 10 uM incubated for 24 hrs by Annexin V-FITC/PI staining based flow cytometric analysis (reference value: 1.1 %); format: functional

**Q.** With `C[C@@H]1CC[C@H]2[C@H](C(=O)c3c(O)c([C@@]4(O)CC[C@@H](O)[C@H]5O[C@H]54)cn(O)c3=O)[C@H](C)C=C[C@@H]2C1` as the compound, how does the IC50 (SW480) read?
**A.** The IC50 was 570 nM.

**Q.** What about the Activity (HT-29 [1]) of the same compound?
**A.** Its Activity is “Dose-Dependent Effect”.

**Q.** What about the Activity (HT-29 [2]) of the same compound?
**A.** Its Activity is 37.6%.

**Q.** And the Activity (Mus musculus [3])?
**A.** The Activity was “Active”.

**Q.** And the inhibition [4]?
**A.** The inhibition was “Dose-Dependent Effect”.

**Q.** And the Activity (HT-29 [5])?
**A.** Its Activity is “Active”.

**Q.** And the Activity [6]?
**A.** The Activity was “Non-Toxic”.

**Q.** What about the Activity (HT-29 [7]) of the same compound?
**A.** Its Activity is 46.2%.

**Q.** And the viability at 0.25 µM (HT-29 [8])?
**A.** Its viability at 0.25 µM is 85.9%.

**Q.** And the Activity (HCT-116 [9])?
**A.** Its Activity is “Active”.

**Q.** What about the Activity (HT-29 [10]) of the same compound?
**A.** Its Activity is “Dose-Dependent Effect”.

**Q.** And the Activity (HCT-116 [11])?
**A.** Its Activity is 3.14%.

**Q.** And the inhibition (Mus musculus [12])?
**A.** The inhibition was “Active”.

**Q.** And the viability at 0.5 µM (HCT-116 [13])?
**A.** The viability at 0.5 µM was 51.7%.

**Q.** And the Activity (HT-29 [14])?
**A.** Its Activity is “Active”.

**Q.** And the Activity (HT-29 [15])?
**A.** Its Activity is “Active”.

**Q.** What about the Activity (HT-29 [16]) of the same compound?
**A.** Its Activity is “Active”.

**Q.** What about the Activity (HT-29 [17]) of the same compound?
**A.** The Activity was 72.58%.

**Q.** What about the Activity [18] of the same compound?
**A.** The Activity was “Non-Toxic”.

**Q.** What about the IC50 (RKO) of the same compound?
**A.** The IC50 was 570 nM.

**Q.** What about the inhibition [19] of the same compound?
**A.** The inhibition was “Dose-Dependent Effect”.

**Q.** And the Activity (HT-29 [20])?
**A.** The Activity was 6.72%.

**Q.** And the Activity (HT-29 [21])?
**A.** Its Activity is 67.37%.

**Q.** And the inhibition [22]?
**A.** The inhibition was “Dose-Dependent Effect”.

**Q.** What about the viability at 0.5 µM (HT-29 [23]) of the same compound?
**A.** The viability at 0.5 µM was 55.5%.

**Q.** What about the inhibition (HCT-116 [24]) of the same compound?
**A.** The inhibition was “Active”.

**Q.** What about the Activity (HCT-116 [25]) of the same compound?
**A.** The Activity was “Dose-Dependent Effect”.

**Q.** What about the Activity (HCT-116 [26]) of the same compound?
**A.** Its Activity is 78.5%.

**Q.** And the inhibition (HT-29 [27])?
**A.** The inhibition was “Active”.

**Q.** What about the Activity (HT-29 [28]) of the same compound?
**A.** The Activity was 0.22%.

**Q.** What about the Activity (Cell membrane) of the same compound?
**A.** The Activity was “Active”.

**Q.** And the Activity (HCT-116 [29])?
**A.** The Activity was 1.56%.
